The record followed here is patent publication US20210236523A1, “P[…] FOR HEADACHE DISORDERS” (priority 2020, published 2021).

SMILES strings stand for the structures.

Data set [1] concerns patients with cluster headache. The data set can be described thus: Cluster headache study: tolerability and adverse events. It counts as in vivo, human. As to the method: Sessions were conducted in the Neurobiological Studies Unit (NSU) at VACHS. Subjects reported to the NSU at 08:00; urine drug, urine pregnancy (when applicable), and alcohol breathalyzer tests were required to be negative in order to proceed. After a standard light breakfast, an intravenous line was placed and baseline measures were collected. Subjects typically received the drug capsule between 08:30 and 09:30. Blood pressure, heart rate, and peripheral oxygenation were measured at baseline and throughout experimental sessions. Drug effects (overall, anxiety/fear, sleepiness/sedation, nausea, joy/intense happiness, peace/harmony) were self-reported on a 0-3 scale (0=none, 1=minimal, 2=moderate, 3=definite) at baseline and throughout experimental sessions. Psychedelic effects were self-reported at the end of experimental sessions using the validated 5-Dimensional Altered States of Consciousness (5D-ASC) scale. Subjects were discharged from the NSU at 6 hours after capsule ingestion or once physiological and psychological drug effects had resolved. Subjects were not allowed to drive themselves after experimental sessions. Emergency contacts, including 24-hour/7-day psychiatry services, were provided to all subjects.
Telephone follow-up was performed the day after each experimental session and weekly for two weeks and at 2, 3, and 6 months after the last experimental session.

The test system of data set [2] is patients with migraine headache. The data set can be described thus: Migraine study: acute physiologic and psychotropic effects and adverse events of drug administration. It counts as in vivo, human. As to the method: Blood pressure, heart rate, and peripheral oxygenation were measured at baseline and throughout experimental sessions. Acute headache pain and associated symptoms (if present) and drug effects (overall, anxiety/fear, sleepiness/sedation, nausea, joy/intense happiness, peace/harmony) were self-reported on a 0-3 scale (0=none, 1=minimal, 2=moderate, 3=definite) at baseline and throughout experimental sessions. Psychedelic effects were self-reported at the end of experimental sessions using the validated 5-Dimensional Altered States of Consciousness (5D-ASC) scale. Subjects were discharged from the NSU at 6 hours after capsule ingestion or once physiological and psychological drug effects had resolved. Only one subject remained in the NSU for an additional 60 minutes until drug effects resolved. Subjects were not allowed to drive themselves after experimental sessions. Emergency contacts, including 24-hour/7-day psychiatry services, were provided to all subjects.
Telephone follow-up was performed the day after and weekly for two weeks after each experimental session, and at 2 and 3 months after the second experimental session.
Statistical analyses were performed using SAS, version 9.4 (SAS Institute Inc., Cary, N.C.) and figures were produced with GraphPad Prism (GraphPad Software Inc., La Jolla, Calif.). All statistical tests were two-sided with an overall pre-hypothesis alpha threshold of 0.05. Measures of error are shown as standard error about the mean (SEM). The primary clinical outcome measure was change in weekly migraine days (WMD) from baseline. This and the secondary measures of migraine burden—changes from baseline in weekly migraine attacks (WMA), pain severity, light sensitivity severity, sound sensitivity severity, nausea/vomiting severity, attack-related functional impairment, and weekly migraine abortive use—were calculated and compared via paired t-test. The time to the next two migraine attacks were also compared between placebo and psilocybin via paired t test. Acute effects of drug administration on mean arterial pressure (MAP), heart rate, peripheral oxygenation, and general drug effects were analyzed via 2-way repeated measures ANOVA with post-hoc Fisher least significant difference (LSD) test (when the interaction existed). Psychotropic effects as measured by the 5D-ASC scale were calculated as a percent of the total possible score 21, 22, as well as the percent possible score of each of the scale's five dimensions—oceanic boundlessness (OBN), dread of ego dissolution (DED), visionary restructuralization (VRS), acoustic alterations (AUA), and vigilance reduction (VIR). Percent possible scores were then compared between placebo and psilocybin via paired t-test. In order to test the assumption that psychotropic effects are unrelated to effects on migraine activity, the maximum rating of general drug effects and the percent total possible 5D-ASC scale score were correlated to the percent change in WMD after psilocybin administration. The number of adverse events (AEs) were compared between placebo and psilocybin using inference on proportions.

Turning to `CN(C)CCc1c[nH]c2cccc(OP(=O)(O)O)c12` [psilocybin, 3-(2-dimethylaminoethyl)-1H-indol-4-yl] dihydrogen phosphate], the “serious or unexpected adverse events” value in data set [1] (cluster headache study, 3-dose pulse 0.143 mg/kg) is “no serious or unexpected adverse events”; in data set [2] (migraine study, single oral dose 0.143 mg/kg) it was “no serious or unexpected AEs”. In addition, in data set [1] (follow-up in the 6 months after study participation), the “lasting physical or psychological changes” value is reported as “no lasting physical or psychological changes”. In addition, the “most commonly reported adverse events during acute exposure” value in data set [1] (self-limiting) is “nausea and anxiety”. In addition, the “maximum increase in mean arterial pressure (MAP) over placebo” value in data set [2] (at 1.5 hours after capsule ingestion, 0.143 mg/kg oral, mean (SEM)) was 12.2 (4.7) mmHg. The “tingling/paresthesia, cold/shivering, dry mouth, and acute migraine reported” value in data set [2] (during experimental session, 0.143 mg/kg oral) is given as “one subject each”. The “lightheadedness and generalized tension/sore muscles, numbers vs placebo” value in data set [2] (during experimental sessions) is reported as “not significant”. Moreover, the “drug x time interaction on heart rate or peripheral oxygenation” value in data set [2] (during experimental sessions, 0.143 mg/kg oral) is listed as “no significant interactions”. For the same compound, the “5D-ASC scale, percent possible score for the total scale score” value in data set [2] (end of experimental test day, 0.143 mg/kg oral, mean (SEM), P=0.0263 vs placebo) came out at 19.35%. In data set [2] (in the 24 hours following the start of experimental sessions), the “tension/sore muscles, general headache attack, and migraine attack vs placebo” value was “no significant differences”. Further, the “MAP vs placebo (post-hoc Fisher LSD)” value in data set [2] (starting at 45 minutes until 4 hours after capsule ingestion, 0.143 mg/kg oral) is reported as “significant increase”.
